Reference: ChEMBL document CHEMBL2412992, “Fluorescent ligands for adenosine receptors” (Bioorg Med Chem Lett, 2013)

Molecular target: Uncharacterized protein (Bos taurus, UniProt E1BKU0)
Assay: Displacement of [3H]CGS21680 from adenosine A2A receptor in bovine striatal membranes after 90 mins by liquid scintillation counting analysis
Format: cell membranes, Striatum, Membrane

Uncharacterized protein, sequence (E1BKU0 whole entry): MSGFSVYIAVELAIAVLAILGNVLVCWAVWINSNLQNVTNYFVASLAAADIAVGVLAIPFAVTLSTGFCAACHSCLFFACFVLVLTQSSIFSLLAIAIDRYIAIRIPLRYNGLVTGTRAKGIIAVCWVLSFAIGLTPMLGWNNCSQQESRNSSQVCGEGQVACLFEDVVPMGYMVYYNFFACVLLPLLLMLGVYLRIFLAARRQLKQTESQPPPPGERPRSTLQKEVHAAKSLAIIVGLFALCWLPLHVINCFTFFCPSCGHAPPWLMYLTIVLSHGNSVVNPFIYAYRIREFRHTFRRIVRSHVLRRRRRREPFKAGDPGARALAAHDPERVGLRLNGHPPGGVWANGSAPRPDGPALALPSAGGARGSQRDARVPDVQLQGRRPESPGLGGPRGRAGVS

Ki: 0.0112 µM
SMILES: CCNC(=O)[C@H]1O[C@@H](n2cnc3c(N)nc(NCCc4ccc(CCC(=O)NCCNC(=S)Nc5ccc(C6c7ccc(O)cc7OC7=CC(=O)C=CC76)c(C(=O)O)c5)cc4)nc32)[C@H](O)[C@@H]1O (stereo partly specified)
